Source: patent publication US7786095B2, “Amphiphilic macrocyclic derivatives and their analogues” (University College Dublin, priority 2000, dated 2010)
Where “and” joins values, the source holds several entries; their conditions need not be identical. Equal values may be shown once.

Key:
Type in all cases: physicochemical
[1] = Dynamic light scattering of cyclodextrin vesicles dispersed in water by sonication; conditions: sonicated 2 hours (HE-SC12 room temperature, HE-SC16 50° C.)
Method: (§1) The amphiphilic cyclodextrins are dispersed in water by sonication of a thin film (cast by slow rotary evaporation of a solution of the cyclodextrins in chloroform) in a sonication bath. HE-SC12 is sonicated for 2 hours at room temperature and HE-SC16 is sonicated for 2 hours at 50° C. Dynamic light scattering indicates the presence of vesicles with an average diameter of 170 nm. Vesicles of cyclodextrins of 50-300 nm diameter are also observed by transmission electron microscopy using uranyl acetate as a negative staining agent (FIG. 1). Upon prolonged sonication (9 hours) of a solution of HE-SC12, a monodisperse solution of spherical vesicles with an average diameter of 60 nm is obtained (FIG. 2). Thus, the particle size can be directed by sonication time, in order to obtain a size suitable for specific molecular inclusion or specific therapeutic use.

[2] = Transmission electron microscopy of cyclodextrin vesicles (uranyl acetate negative staining); conditions: prolonged sonication (9 hours), monodisperse solution
Method: as §1

[3] = Carboxyfluorescein entrapment in vesicles: fluorescence increase on Triton X-100 solubilisation; conditions: 1000-fold dilution, 0.1% w/w Triton X-100, two independent preparations
Method: (§2) Vesicles of heptakis(6-dodecylthio-2-oligoethylenoxy)-β-cyclodextrin and […] were prepared by sonication in a buffered solution of carboxyfluorescein (CF).
(i) Small aliquots of the solutions of the cyclodextrin vesicles (5-20 mM) were diluted 1000-fold, resulting in immediate dilution of the non-entrapped CF with concomitant intense CF fluorescence, which was measured. The fluorescence of entrapped CF is negligible due to self-quenching. Next, the vesicles in the diluted solution were solubilised by the addition of 0.1% w/w of the detergent Triton X-100, leading to release and dilution of entrapped CF, with concomitant increase of CF fluorescence, which was measured. In this concentration range (ca. […]). The fluorescence intensity of CF correlates linearly with its concentration, and the incremental change of fluorescence upon addition of Triton X-100 is a direct measure of the percentage of entrapped volume of the vesicles relative to the total volume of the solution. The entrapped volume amounted to 7.7+/−1.9% and 11.4+/−2.7% for two independent preparations of HE-SC16; and to 5.0+/−2.4% and 7.2+/−5.3% for two independent preparations of HE-SC12.

[4] = Differential scanning calorimetry of a 10% (w/w) dispersion in water
Method: Heptakis(6-hexadecylthio-2-oligoethylenoxy)-β-cyclodextrin was analysed using differential scanning calorimetry. […] The transition occurred around 48-49° C. and the enthalpy of transition amounted to 59 kJ/mol cyclodextrin. This typical Lβ-L[…] transition was confirmed in a measurement of the fluorescence polarisation of diphenylhexatriene in the presence of a vesicle solution by a standard method (R. R. C. New, Liposomes: a practical approach, Oxford University Press, 1990). Thus, vesicles of the amphiphilic cyclodextrins undergo thermotropic phase transitions which depend on molecular structure, and which can direct important parameters such as vesicle stability and bilayer permeability.

[5] = Spontaneous release of carboxyfluorescein from gel-filtered vesicles over time; conditions: room temperature, after 3 days
Method: as §2
(ii) CF entrapped in the vesicles was separated from free (non-entrapped) CF by gel filtration using Sephadex G25. […] The peak of entrapped CF coincided with the elution of vesicles (FIG. 4). This confirms the existence of an aqueous inner compartment within the vesicles. Furthermore, as anticipated, the amount of entrapped CF in cyclodextrin vesicles correlated with the cyclodextrin concentration.
(iii) The spontaneous release of CF from vesicles of HE-SC16 (separated from free CF by gel filtration) was measured over time. At room temperature, the leakage of CF was limited, and the vesicles retained more than 75% of CF after 3 days (FIG. 5).

| average diameter of vesicles (dynamic light scattering) [1] [nm] | average diameter of spherical vesicles after prolonged sonication [2] [nm] | entrapped volume of the vesicles relative to the total volume of the solution [3] | endothermic phase transition temperature (DSC heating scan) [4] | enthalpy of transition [4] [kJ/mol cyclodextrin] | CF retained by vesicles [5] | Substance |
| --- | --- | --- | --- | --- | --- | --- |
| 170 | 60 | 5.0+/−2.4% and 7.2+/−5.3% |  |  |  | heptakis(6-dodecylthio-2-oligoethylenoxy)-β-cyclodextrin [HE-SC12] |
| 170 |  | 7.7+/−1.9% and 11.4+/−2.7% | 48-49 °C | 59 | more than 75% | heptakis(6-hexadecylthio-2-oligoethylenoxy)-β-cyclodextrin [HE-SC16] |
